21 compounds from ChEMBL document CHEMBL1129393, “Synthesis of novel trans-4-(substituted-benzamido)-3,4-dihydro-2H-benzo[b]-pyran-3-ol derivatives as potential anticonvulsant agents with a distinctive binding profile” (J Med Chem, 1996) can be followed below.

The target of one assay is SB-204269 binding site. Nature of the assay: Inhibition of [3H]-SB 204269 binding to rat forebrain membranes. It counts as cell membranes, Membrane.
The subject of assay [1] is Mus musculus. Nature of the assay: Percentage increase in seizure threshold at dose of 10 mg/kg in mouse maximal electroshock seizure threshold (MEST) model after po administration. It counts as functional.
Assay [2] relates to Mus musculus. Nature of the assay: Percentage increase in seizure threshold at dose of 3 mg/kg in mouse maximal electroshock seizure threshold (MEST) model after po administration.

Turning to `CC(=O)c1cccc2c1OC(C)(C)C(O)C2NC(=O)c1ccc(F)cc1` (stereo not drawn), the “Log Ki” value on SB-204269 binding site is on record as -5. Moreover, the Increase in the assay with Mus musculus [1] was 5%.

Consider `COC(=O)c1ccc2c(c1)C(NC(=O)c1ccc(F)cc1)C(O)C(C)(C)O2` (stereo not drawn), for which the “Log Ki” value on SB-204269 binding site is recorded as -6.69. In the assay on Mus musculus [1], the Increase worked out at 59%.

With `CC1(C)Oc2ccc(C(N)=O)cc2C(NC(=O)c2ccc(F)cc2)C1O` (stereo not drawn), at SB-204269 binding site, the “Log Ki” value is given as -6.06. Also, the Increase with Mus musculus [1] was found to be 6%.

`CC1(C)Oc2ccc(C(=O)c3ccccc3)cc2C(NC(=O)c2ccc(F)cc2)C1O` (stereo not drawn): the “Log Ki” value on SB-204269 binding site is listed as -6.12.

Regarding `CC(=O)c1ccc2c(c1)[C@@H](NC(=O)c1ccc(F)cc1)[C@H](O)C(C)(C)O2`, the “Log Ki” value on SB-204269 binding site is less than -4.5. For the same compound, the Increase in the assay with Mus musculus [1] is listed as 8%.

For `CC1(C)Oc2ccc(F)cc2C(NC(=O)c2ccc(F)cc2)C1O` (stereo not drawn), the “Log Ki” value on SB-204269 binding site is -5.38. Moreover, the Increase in the assay on Mus musculus [1] is 10%.

Regarding `Cc1ccc2c(c1)C(NC(=O)c1ccc(F)cc1)C(O)C(C)(C)O2` (stereo not drawn), the “Log Ki” value at SB-204269 binding site is -5.3. The Increase with Mus musculus [1] turned out to be 5%.

In the case of `CC1(C)Oc2ccc(C(F)(F)C(F)(F)F)cc2[C@H](NC(=O)c2ccc(F)cc2)[C@H]1O`, the “Log Ki” value on SB-204269 binding site was -6.35. The Increase in the assay on Mus musculus [1] was -8%.

In the case of `CC(=O)c1ccc2c(c1)C(NC(=O)c1ccc(Cl)cc1)C(O)C(C)(C)O2` (stereo not drawn), at SB-204269 binding site, the “Log Ki” value is -7.16. For the same compound, the Increase in the assay with Mus musculus [1] worked out at 55%.

In the case of `CC(=O)c1ccc2c(c1)[C@H](NC(=O)c1cccc(Cl)c1)[C@@H](O)C(C)(C)O2`, the Increase worked out at 78% with Mus musculus [2] and 90% with Mus musculus [1]. On SB-204269 binding site, the “Log Ki” value is given as -8.04.

For the compound `CCC(=O)c1ccc2c(c1)C(NC(=O)c1ccc(F)cc1)C(O)C(C)(C)O2` (stereo not drawn), the “Log Ki” value on SB-204269 binding site is reported as -6.8. Also, the Increase with Mus musculus [1] was determined as 35%.

Take `CC(=O)c1ccc2c(c1)C(NC(=O)C1CCCCC1)C(O)C(C)(C)O2` (stereo not drawn): the “Log Ki” value at SB-204269 binding site is listed as -5.9.

On to `CC1(C)Oc2ccc([N+](=O)[O-])cc2C(NC(=O)c2ccc(F)cc2)C1O` (stereo not drawn), for which the Increase with Mus musculus [2] is reported as 2%; in the assay on Mus musculus [1], 45%. The “Log Ki” value on SB-204269 binding site is -6.2.

On to `CC(=O)c1ccc2c(c1)[C@H](NC(=O)c1ccccc1)[C@@H](O)C(C)(C)O2`, for which the Increase with Mus musculus [2] came out at 65%; in the assay with Mus musculus [1], 110%. The “Log Ki” value at SB-204269 binding site is -7.3.

For `CC(=O)c1ccc2c(c1)[C@H](NC(=O)c1cccc(I)c1)[C@@H](O)C(C)(C)O2`, the “Log Ki” value at SB-204269 binding site is reported as -8.28. Also, the Increase with Mus musculus [1] worked out at 51%.

In the case of `CC(=O)c1cccc2c1C(NC(=O)c1ccc(F)cc1)C(O)C(C)(C)O2` (stereo not drawn), at SB-204269 binding site, the “Log Ki” value is given as -5.09.

Turning to `CC1(C)Oc2ccc(S(=O)(=O)c3ccccc3)cc2C(NC(=O)c2ccc(F)cc2)C1O` (stereo not drawn), the “Log Ki” value on SB-204269 binding site is listed as -5.84. The Increase in the assay on Mus musculus [1] was -7%.

With `CC(=O)c1ccc2c(c1)[C@H](NC(=O)c1ccccc1Cl)[C@@H](O)C(C)(C)O2`, the Increase in the assay on Mus musculus [2] came out at 94%. The “Log Ki” value at SB-204269 binding site is on record as -7.65.

As for `CC(=O)c1ccc2c(c1)OC(C)(C)C(O)C2NC(=O)c1ccc(F)cc1` (stereo not drawn), the “Log Ki” value on SB-204269 binding site was -5.51.

Take `CC(=O)c1ccc2c(c1)[C@H](NC(=O)c1ccc(F)cc1)[C@@H](O)C(C)(C)O2` [CARABERSAT]: the Increase with Mus musculus [2] is reported as 89%; in the assay on Mus musculus [1], 102%. Besides, at SB-204269 binding site, the “Log Ki” value is -7.32.

Take `CC1(C)Oc2ccc(C#N)cc2[C@H](NC(=O)c2ccc(F)cc2)[C@H]1O`: the Increase worked out at 15% in the assay on Mus musculus [2] and 41% with Mus musculus [1]. In addition, on SB-204269 binding site, the “Log Ki” value was -6.
